In the supplement of paper PMC11451515:

Assays:
SEM cells [1] = assay: cell viability relative to DMSO control; higher = less cytotoxic; conditions: 48 h
Outline: (§1)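 Library compounds in DMSO were pin-dosed into 1536-well plates (5 μl) holding NOMO1 or SEM (500 cells/well) or P12-Ichikawa (1000 cells/well) leukemia cells, across an 11-point threefold series of 47 μM to 0.79 nM. Each cell line had been adapted for at least four passages in each medium. CellTiter-Glo One luminescence was read after 48 h at 37°C. Viability is the per-plate percentage relative to DMSO wells, with cell-free wells as background.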

NOMO1 [2] = assay: AUC of viability dose-response curve (% viability x log10 dose units); higher = less sensitive; conditions: 48 h
Outline: (§2)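 Leukemia cells adapted to each medium were seeded at 500 or 1000 cells/well in 1536-well plates and dosed with library compounds in DMSO at 11 threefold doses from 47 μM to 0.79 nM for 48 h at 37°C. CellTiter-Glo One luminescence was normalised per plate to DMSO and cell-free wells, then fitted with a four-parameter log-logistic model over log10 doses. Area under the curve was taken from this fit by the trapezoidal rule, with curves above full viability scaled and curves failing quality control removed.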

P12-Ichikawa = assay: as above; conditions: 48 h
Outline: as §2

SEM cells [3] = assay: as above; conditions: 48 h
Outline: as §2

NOMO1 [4] = assay: cell viability relative to DMSO control; higher = less cytotoxic; conditions: HPLM + 10% dialyzed FBS, 48 h
Outline: as §1

Cc1cc(Nc2cc(NC(=O)c3c(Cl)cccc3Cl)ccn2)nc(N)n1
SEM cells [1], HPLM + 10% dialyzed FBS
Conditions	cell viability [%]
0.000781 µM	112
0.00234 µM	123
0.00702 µM	126
0.0211 µM	124
0.0632 µM	128
0.19 µM	128
0.569 µM	113
1.71 µM	61.3
5.12 µM	40.9
15.4 µM	37.9
46.1 µM	40.2

AUC of viability dose-response curve
Conditions	NOMO1 [2]	P12-Ichikawa	SEM cells [3]
HPLM + 10% dialyzed FBS	373	364	368
RPMI 5 mM glucose + 10% FBS	391	364	391
RPMI 5 mM glucose + 10% dialyzed FBS	359	346	341

O=C(NCC1CCCCN1)c1cc(OCC(F)(F)F)ccc1OCC(F)(F)F (stereo unspecified)
cell viability [%], SEM cells [1]
Conditions	HPLM + 10% dialyzed FBS	RPMI 5 mM glucose + 10% FBS
0.000781 µM	104	117
0.00234 µM	130	115
0.00702 µM	115	124
0.0211 µM	128	137
0.0632 µM	130	121
0.19 µM	151	127
0.569 µM	130	131
1.71 µM	140	128
5.12 µM	115	120
15.4 µM	118	121
46.1 µM	43.7	61.9

AUC of viability dose-response curve
Conditions	NOMO1 [2]	P12-Ichikawa	SEM cells [3]
HPLM + 10% dialyzed FBS	326	352	457
RPMI 5 mM glucose + 10% FBS	304	353	464
RPMI 5 mM glucose + 10% dialyzed FBS	317	375	468

CNC(=O)c1c(-c2ccc(F)cc2)oc2cc(N(CCO)[S+](C)(=O)[O-])c(C3CC3)cc12
cell viability [%], SEM cells [1]
Conditions	HPLM + 10% dialyzed FBS	RPMI 5 mM glucose + 10% FBS	RPMI 5 mM glucose + 10% dialyzed FBS
0.000781 µM	82.4	44.5	75.4
0.00234 µM	117	71.1	111
0.00702 µM	117	77.3	118
0.0211 µM	110	69.1	106
0.0632 µM	71.9	41.9	65.2
0.19 µM	51.8	26.8	46.8
0.569 µM	67.2	39.9	59.4
1.71 µM	51.2	31.5	48
5.12 µM	25.4	23.8	24.4
15.4 µM	14.3	5.58	10.2
46.1 µM	3.38	1.22	1

AUC of viability dose-response curve
Conditions	HPLM + 10% dialyzed FBS	RPMI 5 mM glucose + 10% FBS	RPMI 5 mM glucose + 10% dialyzed FBS
NOMO1 [2]	395	412	425
P12-Ichikawa	382	407	404

COc1ccc(-c2ccc3c(N4CCOCC4)nc(N4C[C@@H](C)O[C@@H](C)C4)nc3n2)cc1CO
AUC of viability dose-response curve
Conditions	NOMO1 [2]	P12-Ichikawa	SEM cells [3]
HPLM + 10% dialyzed FBS	304	336	343
RPMI 5 mM glucose + 10% FBS	372	301	342
RPMI 5 mM glucose + 10% dialyzed FBS	353	326	356

N#Cc1ccc(COC[C@H]2O[C@@H](n3c(NCc4ccc(Cl)c(Cl)c4)nc4c(N)ncnc43)[C@H](O)[C@@H]2O)cc1
AUC of viability dose-response curve
Conditions	NOMO1 [2]	P12-Ichikawa	SEM cells [3]
HPLM + 10% dialyzed FBS	420	458	465
RPMI 5 mM glucose + 10% FBS	428	414	411
RPMI 5 mM glucose + 10% dialyzed FBS	420	415	431

COC(=O)Nc1nc2cc(C(=O)c3ccccc3)ccc2[nH]1
cell viability [%], SEM cells [1]
Conditions	HPLM + 10% dialyzed FBS	RPMI 5 mM glucose + 10% FBS
0.000781 µM	115	120
0.00234 µM	124	125
0.00702 µM	130	125
0.0211 µM	126	122
0.0632 µM	100	96.4
0.19 µM	24.4	18
0.569 µM	69.6	59.3
1.71 µM	128	86.8
5.12 µM	26.6	22.6
15.4 µM	24.1	23.4
46.1 µM	24.1	19.2

AUC of viability dose-response curve
Conditions	HPLM + 10% dialyzed FBS	RPMI 5 mM glucose + 10% FBS	RPMI 5 mM glucose + 10% dialyzed FBS
NOMO1 [2]	401	389	397
SEM cells [3]	303	286	291

CN(C)C(=N)NC(=N)N
SEM cells [1], RPMI 5 mM glucose + 10% FBS
Conditions	cell viability [%]
0.000781 µM	110
0.00234 µM	122
0.00702 µM	116
0.0211 µM	132
0.0632 µM	152
0.19 µM	154
0.569 µM	156
1.71 µM	110
5.12 µM	62.4
15.4 µM	56.6
46.1 µM	17.8

AUC of viability dose-response curve
Conditions	NOMO1 [2]	P12-Ichikawa	SEM cells [3]
HPLM + 10% dialyzed FBS	437	442	436
RPMI 5 mM glucose + 10% FBS	446	460	393
RPMI 5 mM glucose + 10% dialyzed FBS	451	457	426

CC(=O)O[C@@]1(CC[C@H]2[C@@H]3\C=C(Cl)/C4=C/C(=O)[C@@H]5C[C@@H]5[C@]4(C)[C@H]3CC[C@]12C)C(C)=O
Conditions	AUC of viability dose-response curve	cell viability [%]
NOMO1 [2], HPLM + 10% dialyzed FBS	364	–
NOMO1 [2], RPMI 5 mM glucose + 10% FBS	322	–
NOMO1 [2], RPMI 5 mM glucose + 10% dialyzed FBS	360	–
NOMO1 [4], 0.000781 µM	–	95.1
NOMO1 [4], 0.00234 µM	–	124
NOMO1 [4], 0.00702 µM	–	140
NOMO1 [4], 0.0211 µM	–	137
NOMO1 [4], 0.0632 µM	–	133
NOMO1 [4], 0.19 µM	–	135
NOMO1 [4], 0.569 µM	–	114
NOMO1 [4], 1.71 µM	–	66.4
NOMO1 [4], 5.12 µM	–	36
NOMO1 [4], 15.4 µM	–	38.5
NOMO1 [4], 46.1 µM	–	34.5
SEM cells [3], HPLM + 10% dialyzed FBS	464	–
SEM cells [3], RPMI 5 mM glucose + 10% FBS	450	–
SEM cells [3], RPMI 5 mM glucose + 10% dialyzed FBS	442	–

cell viability [%], SEM cells [1]
Conditions	HPLM + 10% dialyzed FBS	RPMI 5 mM glucose + 10% FBS
0.000781 µM	111	115
0.00234 µM	120	115
0.00702 µM	126	126
0.0211 µM	125	119
0.0632 µM	131	118
0.19 µM	130	144
0.569 µM	128	128
1.71 µM	131	116
5.12 µM	136	120
15.4 µM	134	135
46.1 µM	127	135

C[C@]\12CC[C@H](O)CC1=C/C[C@@H]3[C@@H]2CC[C@@]\4(C)[C@H]3C\C=C4C5=CN=CC=C5
AUC of viability dose-response curve
Conditions	NOMO1 [2]	P12-Ichikawa	SEM cells [3]
HPLM + 10% dialyzed FBS	472	468	469
RPMI 5 mM glucose + 10% FBS	472	460	456
RPMI 5 mM glucose + 10% dialyzed FBS	454	459	469

NC(=O)c1cccnc1
AUC of viability dose-response curve
Conditions	NOMO1 [2]	P12-Ichikawa	SEM cells [3]
HPLM + 10% dialyzed FBS	438	451	448
RPMI 5 mM glucose + 10% FBS	464	466	449
RPMI 5 mM glucose + 10% dialyzed FBS	409	466	457

OC(=O)C/1=C/C(=O)NC(=O)N1
AUC of viability dose-response curve
Conditions	NOMO1 [2]	P12-Ichikawa	SEM cells [3]
HPLM + 10% dialyzed FBS	424	455	466
RPMI 5 mM glucose + 10% FBS	450	457	457
RPMI 5 mM glucose + 10% dialyzed FBS	437	456	458

CC(C)(CO)[C@@H](O)C(=O)NCCC(=O)O
AUC of viability dose-response curve
Conditions	NOMO1 [2]	P12-Ichikawa	SEM cells [3]
HPLM + 10% dialyzed FBS	440	466	469
RPMI 5 mM glucose + 10% FBS	470	471	471
RPMI 5 mM glucose + 10% dialyzed FBS	461	463	465
